Reference: US20250082716A1, “REPRESSED ANG 1-7 IN COVID-19 IS INVERSELY ASSOCIATED WITH INFLAMMATION AND COAGULATION” (priority 2021, published 2025)
Read-outs that look alike come from different tables or passages of the source.

Test system: SARS-CoV-2 South African variant
Format: in vivo, LVG Golden Syrian male hamsters

## CCNC(=O)NS(=O)(=O)c1sc(CC(C)C)cc1-c1ccc(Cn2c(-c3ccccc3)nc(OC)c2C=O)cc1 [AVE0991, N-(Ethylcarbamoyl)-3-(4-((5-formyl-4-methoxy-2-phenyl-1H-imidazol-1-YL)methyl)phenyl)-5-isobutylthiophene-2-sulfonamide]
hamster, in vivo
  daily body weights expressed as the percentage of starting body weight: continued to gain weight through the entire course of infection

## Asp-Arg-Val-Tyr-Ile-His-Pro (DRVYIHP; printed: Asp-Arg-Val-Tyr-Ile-His-Pro) [angiotensin 1-7]
Pump implant delivering angiotensin 1-7 at 12 mg/kg/day, started the day after inoculation with 500,000 PFU, n=3
  daily body weights expressed as the percentage of starting body weight: continued to gain weight through the entire course of infection
